Key:
in vitro [1] = settings: human, blood
in vitro [2] = settings: human, liver
Description: Half life in human liver at 37 degree C

COc1cc(C(C)C)c2c(c1)S(=O)(=O)N(COC(=O)c1c(Cl)cccc1Cl)C2=O
half-life (in vitro [1]): 2.33 h
half-life (in vitro [2]): 1.22 h

COc1cc(C(C)C)c2c(c1)S(=O)(=O)N(COC1=C(Cc3ccccc3)C(=O)OC1C)C2=O (configuration not stated)
half-life (in vitro [1]): 2.82 h
half-life (in vitro [2]): 0.583 h

COc1cc(C(C)C)c2c(c1)S(=O)(=O)N(COC1=CC(=O)c3ccccc31)C2=O
half-life (in vitro [1]): < 0.25 h

COc1cc(C(C)C)c2c(c1)S(=O)(=O)N(COC1=C(c3ccccc3)C(=O)OC1)C2=O
half-life (in vitro [1]): 0.483 h

COc1cc(C(C)C)c2c(c1)S(=O)(=O)N(COC1=C(Cc3ccccc3)C(=O)OC1)C2=O
half-life (in vitro [1]): 0.967 h
half-life (in vitro [2]): 1.25 h

COc1cc(C(C)C)c2c(c1)S(=O)(=O)N(COC1=C(C)C(=O)CC1)C2=O
half-life (in vitro [1]): < 0.25 h

COc1cc(C(C)C)c2c(c1)S(=O)(=O)N(COC1=C(c3ccccc3)C(=O)OC1C)C2=O (configuration not stated)
half-life (in vitro [1]): 2.57 h
half-life (in vitro [2]): 1.37 h

COc1cc(C(C)C)c2c(c1)S(=O)(=O)N(COc1cc(=O)oc3ccccc13)C2=O
half-life (in vitro [1]): 6 h

COc1cc(C(C)C)c2c(c1)S(=O)(=O)N(COc1nc3ccccn3c(=O)c1Br)C2=O
half-life (in vitro [1]): 2.07 h

COc1cc(C(C)C)c2c(c1)S(=O)(=O)N(COC1=CC(=O)C1)C2=O
half-life (in vitro [1]): < 0.25 h

COc1cc(C(C)C)c2c(c1)S(=O)(=O)N(COc1cc(C)oc(=O)c1)C2=O
half-life (in vitro [1]): < 0.25 h

COc1cc(C(C)C)c2c(c1)S(=O)(=O)N(COc1cc(=O)n3c(n1)CCCC3)C2=O
half-life (in vitro [1]): 0.85 h

COc1cc(C(C)C)c2c(c1)S(=O)(=O)N(COC1=CC(=O)OC1C)C2=O (configuration not stated)
half-life (in vitro [1]): < 0.25 h

COc1cc(C(C)C)c2c(c1)S(=O)(=O)N(COC1=C(Cl)C(=O)OC1)C2=O
half-life (in vitro [1]): < 0.25 h

CCC(C)c1cccc2c1C(=O)N(COc1nc3ccccn3c(=O)c1Cl)S2(=O)=O (configuration not stated)
half-life (in vitro [1]): 3.83 h

COc1cc(C(C)C)c2c(c1)S(=O)(=O)N(COC1=CC(=O)N(Cc3ccccc3)C1)C2=O
half-life (in vitro [1]): 0.233 h

COc1cc(C(C)C)c2c(c1)S(=O)(=O)N(COC1=CC(=O)OC1)C2=O
half-life (in vitro [1]): < 0.25 h

COc1cc(C(C)C)c2c(c1)S(=O)(=O)N(COc1nc3ccccn3c(=O)c1Cl)C2=O
half-life (in vitro [1]): 2.67 h

COc1cc(C(C)C)c2c(c1)S(=O)(=O)N(COc1cc(C)oc(=O)c1Cl)C2=O
half-life (in vitro [1]): < 0.25 h

COc1cc(C(C)C)c2c(c1)S(=O)(=O)N(COc1cc(C)oc(=O)c1C(=O)c1ccccc1)C2=O
half-life (in vitro [1]): < 0.25 h

CC(C)c1cccc2c1C(=O)N(COc1nc3ccccn3c(=O)c1Cl)S2(=O)=O
half-life (in vitro [1]): 0.833 h

COc1cc(C(C)C)c2c(c1)S(=O)(=O)N(COc1nc3ccccn3c(=O)c1C)C2=O
half-life (in vitro [1]): 5.83 h
half-life (in vitro [2]): 1.72 h

COc1cc(C(C)C)c2c(c1)S(=O)(=O)N(COC1=C(Cc3ccccc3)C(=O)CC1)C2=O
half-life (in vitro [1]): 0.917 h

COc1cc(C(C)C)c2c(c1)S(=O)(=O)N(COC1=C(C)C(=O)CCC1)C2=O
half-life (in vitro [1]): 0.267 h

O=C1c2ccccc2S(=O)(=O)N1COc1nc2ccccn2c(=O)c1Cl
half-life (in vitro [1]): < 0.25 h

COc1cc(C(C)C)c2c(c1)S(=O)(=O)N(COc1cc(=O)n3ccccc3n1)C2=O
half-life (in vitro [1]): 1.78 h
half-life (in vitro [2]): 1.7 h

Reference: ChEMBL document CHEMBL1128195, “A novel class of cyclic beta-dicarbonyl leaving groups and their use in the design of benzisothiazolone human leukocyte elastase inhibitors” (J Med Chem, 1995)
